Reference: patent publication US20090118332A1, “Therapeutic Agents - 551” (AstraZeneca AB, priority 2006, published 2009)

molecular target: T1, human Fatty Acid Synthase (Homo sapiens, UniProt P49327); assay: Human FAS enzyme assay (decrease in NADPH fluorescence); type: biochemical; details: % inhibition at a concentration of 100 μmolar
T1 construct: made in house
Procedure, shortened: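 In-house human FAS was preincubated with compound and NADPH for 15 min at room temperature in 0.1 M Tris pH 7.5 with EDTA, glutathione and BSA. Malonyl CoA and acetyl CoA (500 μM and 150 μM in the added mix) were then added for 60 min. IC50 came from time-zero-subtracted NADPH fluorescence (340/460 nm).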

T1 sequence (P49327 whole entry): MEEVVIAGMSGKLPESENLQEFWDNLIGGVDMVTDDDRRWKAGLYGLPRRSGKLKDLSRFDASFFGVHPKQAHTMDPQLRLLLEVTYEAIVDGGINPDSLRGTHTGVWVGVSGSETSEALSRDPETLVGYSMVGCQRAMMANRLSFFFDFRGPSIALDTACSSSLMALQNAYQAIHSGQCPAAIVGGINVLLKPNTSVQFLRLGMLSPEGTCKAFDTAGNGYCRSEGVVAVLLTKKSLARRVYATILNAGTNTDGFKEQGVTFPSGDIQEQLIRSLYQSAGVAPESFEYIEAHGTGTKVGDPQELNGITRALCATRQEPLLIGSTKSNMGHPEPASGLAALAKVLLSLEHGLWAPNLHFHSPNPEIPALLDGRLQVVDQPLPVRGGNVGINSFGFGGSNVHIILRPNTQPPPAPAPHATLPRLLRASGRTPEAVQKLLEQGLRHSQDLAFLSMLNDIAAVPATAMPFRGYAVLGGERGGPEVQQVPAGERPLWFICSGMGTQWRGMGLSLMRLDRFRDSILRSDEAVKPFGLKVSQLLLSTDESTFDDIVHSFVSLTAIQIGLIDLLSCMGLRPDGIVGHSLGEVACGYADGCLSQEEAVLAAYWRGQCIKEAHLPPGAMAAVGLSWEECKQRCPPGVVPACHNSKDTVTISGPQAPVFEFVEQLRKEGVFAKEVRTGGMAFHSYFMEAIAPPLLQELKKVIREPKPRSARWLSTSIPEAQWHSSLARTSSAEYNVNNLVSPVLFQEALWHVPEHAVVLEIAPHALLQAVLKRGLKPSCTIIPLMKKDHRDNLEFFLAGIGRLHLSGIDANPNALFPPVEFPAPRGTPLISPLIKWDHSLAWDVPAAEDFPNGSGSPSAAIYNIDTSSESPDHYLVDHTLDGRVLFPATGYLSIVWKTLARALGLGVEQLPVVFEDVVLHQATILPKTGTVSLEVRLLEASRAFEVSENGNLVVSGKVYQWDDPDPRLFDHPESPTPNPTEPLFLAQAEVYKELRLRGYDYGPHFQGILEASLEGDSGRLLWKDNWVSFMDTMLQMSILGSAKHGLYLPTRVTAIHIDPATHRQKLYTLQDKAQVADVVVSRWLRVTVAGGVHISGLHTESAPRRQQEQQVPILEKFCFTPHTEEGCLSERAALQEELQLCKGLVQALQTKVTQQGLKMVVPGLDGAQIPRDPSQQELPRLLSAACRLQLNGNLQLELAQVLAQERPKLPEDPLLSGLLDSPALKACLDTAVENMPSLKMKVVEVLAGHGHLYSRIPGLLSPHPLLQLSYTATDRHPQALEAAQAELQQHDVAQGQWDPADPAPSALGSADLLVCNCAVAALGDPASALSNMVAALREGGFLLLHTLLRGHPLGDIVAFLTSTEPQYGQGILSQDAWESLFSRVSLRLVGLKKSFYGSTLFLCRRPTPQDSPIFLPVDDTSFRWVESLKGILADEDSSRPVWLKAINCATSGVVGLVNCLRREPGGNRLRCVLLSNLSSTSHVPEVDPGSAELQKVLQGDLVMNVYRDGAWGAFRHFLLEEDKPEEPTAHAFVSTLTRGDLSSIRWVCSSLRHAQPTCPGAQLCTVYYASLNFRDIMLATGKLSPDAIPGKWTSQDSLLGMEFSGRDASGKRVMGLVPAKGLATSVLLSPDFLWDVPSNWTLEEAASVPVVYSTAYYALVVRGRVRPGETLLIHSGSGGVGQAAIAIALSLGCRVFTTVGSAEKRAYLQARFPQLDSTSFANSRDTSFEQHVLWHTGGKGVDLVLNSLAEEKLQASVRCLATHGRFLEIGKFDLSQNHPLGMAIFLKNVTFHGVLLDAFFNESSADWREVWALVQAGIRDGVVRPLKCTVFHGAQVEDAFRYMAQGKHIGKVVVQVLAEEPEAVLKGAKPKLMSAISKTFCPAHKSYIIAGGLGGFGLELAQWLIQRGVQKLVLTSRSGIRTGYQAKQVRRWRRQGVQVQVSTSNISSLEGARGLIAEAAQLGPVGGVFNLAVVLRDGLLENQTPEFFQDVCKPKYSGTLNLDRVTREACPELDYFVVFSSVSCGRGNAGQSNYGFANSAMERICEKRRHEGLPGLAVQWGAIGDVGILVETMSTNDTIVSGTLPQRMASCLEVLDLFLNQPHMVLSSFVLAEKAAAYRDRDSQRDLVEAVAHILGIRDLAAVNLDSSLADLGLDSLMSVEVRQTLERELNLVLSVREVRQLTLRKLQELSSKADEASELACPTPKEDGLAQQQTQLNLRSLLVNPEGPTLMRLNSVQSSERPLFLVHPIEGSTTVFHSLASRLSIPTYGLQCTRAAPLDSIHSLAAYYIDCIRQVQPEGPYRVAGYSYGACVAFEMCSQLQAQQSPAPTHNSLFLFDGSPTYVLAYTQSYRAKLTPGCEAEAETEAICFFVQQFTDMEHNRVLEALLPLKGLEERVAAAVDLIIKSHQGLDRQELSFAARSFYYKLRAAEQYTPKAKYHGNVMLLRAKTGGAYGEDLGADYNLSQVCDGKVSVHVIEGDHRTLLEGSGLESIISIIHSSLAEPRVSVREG

Row | SMILES | inhibition at 100 µM [%]
1 | Cc1ccc(C(=O)N2CCC(O)(c3ccc(C#N)cc3)CC2)cc1NC(=O)NC(C)C [Example 50, 1-[5-[4-(4-cyanophenyl)-4-hydroxy-piperidine-1-carbonyl]-2-methyl-phenyl]-3-propan-2-yl-urea] | 81.2
2 | Cc1ccc(C(=O)N2CCC(c3ccc(C#N)cc3)CC2)cc1NC(=O)NCCCC(=O)OC(C)(C)C [Example 51, tert-butyl 4-[[5-[4-(4-cyanophenyl)piperidine-1-carbonyl]-2-methyl-phenyl]carbamoylamino]butanoate] | 101
3 | CCC(CC)NC(=O)Nc1cc(C(=O)N2CCC(c3ccc(C#N)cc3)CC2)ccc1C [Example 53, 3-[5-[4-(4-cyanophenyl)piperidine-1-carbonyl]-2-methyl-phenyl]-1-pentan-3-yl-urea] | 90.8
4 | Cc1ccc(C(=O)N2CCC(c3ccc(C#N)cc3)CC2)cc1NC(=O)NCC(N)=O [Example 58, 2-[[5-[4-(4-cyanophenyl)piperidine-1-carbonyl]-2-methyl-phenyl]carbamoylamino]acetamide] | 89.9
5 | Cc1ccc(C(=O)N2CCC(c3ccc(C#N)cc3)CC2)cc1NC(=O)NC(C)(C)CNc1ccccc1 [Example 59, 3-(1-anilino-2-methyl-propan-2-yl)-1-[5-[4-(4-cyanophenyl)piperidine-1-carbonyl]-2-methyl-phenyl]urea] | 87.2
6 | Cc1ccc(C(=O)N2CCC(c3ccc(C#N)cc3)CC2)cc1NC(=O)NCCCCNC(=O)OC(C)(C)C [Example 69, tert-butyl N-[4-[[5-[4-(4-cyanophenyl)piperidine-1-carbonyl]-2-methyl-phenyl]carbamoylamino]butyl]carbamate] | 87.9
7 | Cc1ccc(C(=O)N2CCC(c3ccc(C#N)cc3)CC2)cc1NC(=O)N[C@@H](CC(C)C)C(N)=O [Example 73, (2S)-2-[[5-[4-(4-cyanophenyl)piperidine-1-carbonyl]-2-methyl-phenyl]carbamoylamino]-4-methyl-pentanamide] | 78.2
8 | Cc1ccc(C(=O)N2CCC(c3ccc(C#N)cc3)CC2)cc1NC(=O)NCCCN1CCCC1 [Example 74, 1-[5-[4-(4-cyanophenyl)piperidine-1-carbonyl]-2-methyl-phenyl]-3-(3-pyrrolidin-1-ylpropyl)urea] | 89.6
9 | Cc1ccc(C(=O)N2CCC(c3ccc(C#N)cc3)CC2)cc1NC(=O)NCc1ccc(-c2csnn2)cc1 [Example 75, 1-[5-[4-(4-cyanophenyl)piperidine-1-carbonyl]-2-methyl-phenyl]-3-[[4-(thiadiazol-4-yl)phenyl]methyl]urea] | 87.4
10 | Cc1ccc(C(=O)N2CCC(c3ccc(C#N)cc3)CC2)cc1NC(=O)NC1CCOC(C)(C)C1 (stereo not shown) [Example 77, 1-[5-[4-(4-cyanophenyl)piperidine-1-carbonyl]-2-methyl-phenyl]-3-(2,2-dimethyloxan-4-yl)urea] | 89.6
11 | Cc1ccc(C(=O)N2CCC(c3ccc(C#N)cc3)CC2)cc1NC(=O)N[C@@H](COC(C)(C)C)C(N)=O [Example 78, (2S)-2-[[5-[4-(4-cyanophenyl)piperidine-1-carbonyl]-2-methyl-phenyl]carbamoylamino]-3-[(2-methylpropan-2-yl)oxy]propanamide] | 85.7
12 | CCCN1CCC(NC(=O)Nc2cc(C(=O)N3CCC(c4ccc(C#N)cc4)CC3)ccc2C)CC1 [Example 79, 3-[5-[4-(4-cyanophenyl)piperidine-1-carbonyl]-2-methyl-phenyl]-1-(1-propyl-4-piperidyl)urea] | 95.4
13 | Cc1ccc(C(=O)N2CCC(c3ccc(C#N)cc3)CC2)cc1NC(=O)NCC1CCS(=O)(=O)C1 (stereo not shown) [Example 80, 1-[5-[4-(4-cyanophenyl)piperidine-1-carbonyl]-2-methyl-phenyl]-3-[(1,1-dioxothiolan-3-yl)methyl]urea] | 96.1
14 | Cc1ccc(C(=O)N2CCC(c3ccc(C#N)cc3)CC2)cc1NC(=O)NCc1nnn[nH]1 [Example 82, 1-[5-[4-(4-cyanophenyl)piperidine-1-carbonyl]-2-methyl-phenyl]-3-(1H-tetrazol-5-ylmethyl)urea] | 82

Second part, the compound after the results:

Row | inhibition at 100 µM [%] | SMILES
15 | 94.4 | Cc1ccc(C(=O)N2CCC(c3ccc(C#N)cc3)CC2)cc1NC(=O)NCc1ccccn1 [Example 52, 1-[5-[4-(4-cyanophenyl)piperidine-1-carbonyl]-2-methyl-phenyl]-3-(pyridin-2-ylmethyl)urea]
16 | 92.2 | Cc1cccc(CNC(=O)Nc2cc(C(=O)N3CCC(c4ccc(C#N)cc4)CC3)ccc2C)c1 [Example 54, 3-[5-[4-(4-cyanophenyl)piperidine-1-carbonyl]-2-methyl-phenyl]-1-[(3-methylphenyl)methyl]urea]
17 | 93.2 | CC(=O)NCCNC(=O)Nc1cc(C(=O)N2CCC(c3ccc(C#N)cc3)CC2)ccc1C [Example 55, N-[2-[[5-[4-(4-cyanophenyl)piperidine-1-carbonyl]-2-methyl-phenyl]carbamoylamino]ethyl]acetamide]
18 | 105 | Cc1ccc(C(=O)N2CCC(c3ccc(C#N)cc3)CC2)cc1NC(=O)NCc1ccc(F)c(F)c1 [Example 56, 1-[5-[4-(4-cyanophenyl)piperidine-1-carbonyl]-2-methyl-phenyl]-3-[(3,4-difluorophenyl)methyl]urea]
19 | 96.8 | Cc1ccc(C(=O)N2CCC(c3ccc(C#N)cc3)CC2)cc1NC(=O)NCCc1ccc(S(N)(=O)=O)cc1 [Example 57, 1-[5-[4-(4-cyanophenyl)piperidine-1-carbonyl]-2-methyl-phenyl]-3-[2-(4-sulfamoylphenyl)ethyl]urea]
20 | 95.3 | Cc1ccc(C(=O)N2CCC(c3ccc(C#N)cc3)CC2)cc1NC(=O)NCCc1ccccn1 [Example 60, 1-[5-[4-(4-cyanophenyl)piperidine-1-carbonyl]-2-methyl-phenyl]-3-(2-pyridin-2-ylethyl)urea]
21 | 84.8 | COc1ccccc1CCNC(=O)Nc1cc(C(=O)N2CCC(c3ccc(C#N)cc3)CC2)ccc1C [Example 61, 1-[5-[4-(4-cyanophenyl)piperidine-1-carbonyl]-2-methyl-phenyl]-3-[2-(2-methoxyphenyl)ethyl]urea]
22 | 101 | Cc1ccc(C(=O)N2CCC(c3ccc(C#N)cc3)CC2)cc1NC(=O)NCCc1ccncc1 [Example 62, 1-[5-[4-(4-cyanophenyl)piperidine-1-carbonyl]-2-methyl-phenyl]-3-(2-pyridin-4-ylethyl)urea]
23 | 93.4 | Cc1ccc(C(=O)N2CCC(c3ccc(C#N)cc3)CC2)cc1NC(=O)NCCc1cccs1 [Example 63, 1-[5-[4-(4-cyanophenyl)piperidine-1-carbonyl]-2-methyl-phenyl]-3-(2-thiophen-2-ylethyl)urea]
24 | 94 | COc1ccc(CCNC(=O)Nc2cc(C(=O)N3CCC(c4ccc(C#N)cc4)CC3)ccc2C)cc1 [Example 64, 1-[5-[4-(4-cyanophenyl)piperidine-1-carbonyl]-2-methyl-phenyl]-3-[2-(4-methoxyphenyl)ethyl]urea]
25 | 99.8 | COc1cccc(CCNC(=O)Nc2cc(C(=O)N3CCC(c4ccc(C#N)cc4)CC3)ccc2C)c1 [Example 65, 1-[5-[4-(4-cyanophenyl)piperidine-1-carbonyl]-2-methyl-phenyl]-3-[2-(3-methoxyphenyl)ethyl]urea]
26 | 91.5 | Cc1ccc(C(=O)N2CCC(c3ccc(C#N)cc3)CC2)cc1NC(=O)NCCc1cccnc1 [Example 66, 1-[5-[4-(4-cyanophenyl)piperidine-1-carbonyl]-2-methyl-phenyl]-3-(2-pyridin-3-ylethyl)urea]
27 | 96.9 | Cc1ccc(C(=O)N2CCC(c3ccc(C#N)cc3)CC2)cc1NC(=O)NCCc1c(C)noc1C [Example 67, 1-[5-[4-(4-cyanophenyl)piperidine-1-carbonyl]-2-methyl-phenyl]-3-[2-(3,5-dimethyl-1,2-oxazol-4-yl)ethyl]urea]
28 | 102 | Cc1ccc(C(=O)N2CCC(c3ccc(C#N)cc3)CC2)cc1NC(=O)NCCc1cccc(F)c1 [Example 68, 1-[5-[4-(4-cyanophenyl)piperidine-1-carbonyl]-2-methyl-phenyl]-3-[2-(3-fluorophenyl)ethyl]urea]
29 | 94.2 | Cc1ccc(C(=O)N2CCC(c3ccc(C#N)cc3)CC2)cc1NC(=O)NCC(C)(C)C [Example 71, 1-[5-[4-(4-cyanophenyl)piperidine-1-carbonyl]-2-methyl-phenyl]-3-(2,2-dimethylpropyl)urea]
30 | 80.1 | COC(=O)CNC(=O)Nc1cc(C(=O)N2CCC(c3ccc(C#N)cc3)CC2)ccc1C [Example 72, Methyl 2-[[5-[4-(4-cyanophenyl)piperidine-1-carbonyl]-2-methyl-phenyl]carbamoylamino]acetate]
31 | 97.5 | Cc1cc(C)n(CCNC(=O)Nc2cc(C(=O)N3CCC(c4ccc(C#N)cc4)CC3)ccc2C)n1 [Example 76, 1-[5-[4-(4-cyanophenyl)piperidine-1-carbonyl]-2-methyl-phenyl]-3-[2-(3,5-dimethylpyrazol-1-yl)ethyl]urea]
32 | 88.2 | Cc1ccc(C(=O)N2CCC(c3ccc(C#N)cc3)CC2)cc1NC(=O)NCCNC(=O)OCc1ccccc1 [Example 81, Benzyl N-[2-[[5-[4-(4-cyanophenyl)piperidine-1-carbonyl]-2-methyl-phenyl]carbamoylamino]ethyl]carbamate]
33 | 102 | COc1ccccc1OCCNC(=O)Nc1cc(C(=O)N2CCC(c3ccc(C#N)cc3)CC2)ccc1C [Example 83, 1-[5-[4-(4-cyanophenyl)piperidine-1-carbonyl]-2-methyl-phenyl]-3-[2-(2-methoxyphenoxy)ethyl]urea]
34 | 92.3 | COc1ccc([C@@H](C)NC(=O)Nc2cc(C(=O)N3CCC(c4ccc(C#N)cc4)CC3)ccc2C)cc1 [Example 84, 1-[5-[4-(4-cyanophenyl)piperidine-1-carbonyl]-2-methyl-phenyl]-3-[(1R)-1-(4-methoxyphenyl)ethyl]urea]
